Earlier results, collected in patent US12409121B2, “Formulations and methods for preparing stable cosmetic compositions” (Spinart, LLC, priority 2019, dated 2025).

α-CO2H pKa1 (carboxylic group): 2.18
α-NH3 pKa2 (α-amino group): 9.09
Compound: N=C(N)NCCCC(N)C(=O)O (centres unmarked) [Arginine]
